Results as given in patent publication US20200352912A1, “ANTIMICROBIAL COMPOSITIONS AND METHODS OF USING THE SAME” (The Board Of Supervisors Of Louisiana State University And …, priority 2018, published 2020).

Key:
[1] = tested on: C. albicans and S. aureus; test: mouse C. albicans-S. aureus polymicrobial intra-abdominal infection; assay type: in vivo, mice; details: 10 mg/kg
Description: Effect of inhibition of EP4 receptor signaling on survival. Mice received either vehicle or EP4 receptor antagonist at a dose of 10 mg/kg by i.p. injection as indicated in Materials and Methods. Mortality was assessed using Kaplan Meier test (***P<0.001; n=20/group) compared to control groups. Data shown are representative of three replicate experiments.
The mouse peritonitis/intra-abdominal model was performed as previously described (8). In brief, for MRSA peritonitis, mice were injected intraperitoneally (i.p.) with 4×10^6 CFU or 5×10^6 CFU or 2×10^7 CFU of S. aureus in 0.2 ml of PBS containing 3% hog gastric mucin type III (Sigma Aldrich). Mice injected i.p. with 0.2 ml of mucin/PBS served as a negative infection control. For the intra-abdominal infection with C. albicans and S. aureus, mice were injected i.p. with 7×10^6 CFU of C. albicans and 8×10^7 CFU of S. aureus (8.7×10^7 CFU total) in 0.2 ml of PBS. After inoculation, mice were observed over 10 days for signs of morbidity (hunched posture, inactivity, lethargy, and ruffled fur) and mortality. […] In the MRSA peritonitis experiments, mice were sacrificed at 24 or 48 h post-inoculation to assess microbial burden. Peritoneal cavities were lavaged by injection of 2 ml of sterile PBS followed by gentle massaging of the peritoneal cavity. Peritoneal lavage fluid then was removed using a pipette inserted into a small incision in the abdominal cavity. Spleens were removed, weighed, and mechanically homogenized prior to CFU analysis. Microbial burdens in the peritoneal lavage fluid and spleen were enumerated as described above.
Each inhibitor was prepared fresh as a concentrated stock (20-25 mg/ml) in DMSO and diluted to a working concentration of […] in sterile PBS (final DMSO concentration, 2.3%). A sham treatment containing only 2.3% DMSO in PBS was also prepared. For the MRSA peritonitis study, the EP4 receptor antagonist was administered 2 h after S. aureus inoculation and once daily thereafter until day 4 post inoculation. For the IAI co-infection study, COX inhibitor or vehicle control was administered 4 h prior to and 4 and 8 h after inoculation with C. albicans and S. aureus while the EP receptor antagonists were administered daily starting 1 day prior to and 5 days after infection. All other procedures were performed as described above. Control groups received the vehicle at the same dose interval.
In a final set of experiments, we evaluated the ability of L-161, 982 to reduce lethality in co-infected mice. Mice co-inoculated with the standard 7×106 C. albicans CFU and 8×107 S. aureus CFU (8.7×10^7 CFU total) were treated with L-161, 982 (10 mg/kg) 2 h post infection and once daily afterwards until day 5. […]

S. aureus = test: generation of hydroxyl radicals (thiourea scavenger); assay type: cell-based, Staphylococcus aureus; details: 50 μg/ml, 150 mM thiourea
Description: (A) Effects of reactive oxygen species inhibitors. Growth of S. aureus was monitored for up to 6 h in medium alone or medium supplemented with 15 mM of Na-L-ascorbate, and/or 15 mM N-acetyl-L-cysteine, and/or 50 μg/ml L-161, 982. Data shown are representative of two independent experiments. (B) Effects of hydroxyl radical scavengers. Growth was monitored for 4 h in medium alone or medium supplemented with 50 μg/ml L-161, 982 or 1 mM H2O2 alone, plus 150 mM thiourea, or plus 500 μM 2,2′-dipyridyl.
Generation of hydroxyl radicals. Antibiotic induced hydroxyl radical production was measured as previously described (12). Overnight cultures of S. aureus were diluted 1:100 in TSB and grown for 3 h at 37° C. with shaking to mid-log phase. Cultures were diluted in TSB to OD600=0.05 and L-161, 982 was added at a final concentration of 50 µg/ml+/−H2O2 (1 mM; Sigma) or thiourea (150 mM; Sigma). Cultures were incubated at 37° C. with shaking and aliquots were removed at t(0) and at 1 h intervals duplicate, diluted 1:100 and optical density measured at 600 nm (OD600) or serially diluted and plated onto SDA and grown at 37° C. for 24 h for CFU enumeration.

S. aureus strain 43300 = test: hemolysis assay; assay type: cell-based, Staphylococcus aureus
Description: (A) Macroscopic analysis of S. aureus hemolytic activity. S. aureus was spotted on Mueller-Hinton agar containing sheep blood and/or various concentrations of L-161, 982, and incubated at 37 C for 24 h (0, 25 50, 100) or 72 h (200). (B) Width of the zone of RBC clearance was measured at 4 points around each S. aureus area of growth in 2 independent replicates. * p<0.05 control vs. drug-treated.
Strains and growth conditions. The methicillin-resistant S. aureus strain NRS383 was obtained from the Network on Antimicrobial Resistance in S. aureus (NARSA) data bank. As NRS383 has little or no hemolytic activity or pigmentation, S. aureus strain 43300 (ATCC) was used for the hemolysis and staphyloxanthin assays. Frozen stocks were obtained at −80° C. and streaked onto trypticase soy agar (TSA) plates at 37° C. prior to use. A single colony was transferred to 10 ml of trypticase soy broth (TSB) and shaken at 37° C. overnight. […]
Hemolysis Assay. Hemolytic activity was measured using Mueller-Hinton agar plates containing 5% defribinated sheep blood (Thermo Fisher)+/−L-161, 982 at a final concentration of 50 μg/ml. […] Plates were placed on a light box and digitally photographed and images were analyzed using Photoshop CS3. […] The width of each zone was measured at 0, 90, 180, 270° around growth spots (2-3 spots/group) using the ruler tool. […]

[2] = tested on: LPS-activated human macrophages; details: 100 nM; cited from earlier work

With `CCCCc1nn(-c2ccccc2C(F)(F)F)c(=O)n1Cc1ccc(-c2ccccc2S(=O)(=O)NC(=O)c2sccc2C)cc1` [L-161, 982, N-[[4′-[[3-Butyl-1,5-dihydro-5-oxo-1-[2-(trifluoromethyl)phenyl]-4H-1,2,4-triazol-4-yl]methyl][1,1′-biphenyl]-2-yl]sulfonyl]-3-methyl-2-thiophenecarboxamide] the “survival enhanced by” value [1] was 40%, the survival ([1]; vehicle control 10) was 50% and the “effect of thiourea on growth inhibition” value (S. aureus) was “did not alleviate”. For the same compound, the “hemolytic activity, zones of clearance on blood agar” value (S. aureus strain 43300) was “significantly reduced zones of clearance” and the “effect on anti-inflammatory action of PGE2” value [2] was “reverses the anti-inflammatory action of PGE2”.
